Test results reported in patent US20180117176A1, “POROUS SILICON MICROPARTICLE-BASED CANCER VACCINES AND METHODS FOR POTENTIATING ANTI-TUMOR IMMUNITY” (The Methodist Hospital, priority 2015, published 2018).
Where a SMILES comes first, the peptide text is derived from it. The star is where a group is joined. Cbz = O=C(OCc1ccccc1)*

What was measured:
Type in all cases: cell-based, mouse
Ifn-α4 and Ifn-β genes = assay: QPCR analysis of Ifn-α4 and Ifn-β gene expression in BMDCs; conditions: BMDCs pre-treated with chemical inhibitor
Description: FIG. 3A, FIG. 3B, FIG. 3C, and FIG. 3D show PSM-induced IFN-I signaling in DCs. […] Cell culture medium served as the negative control. […] FIG. 3C is a QPCR analysis of mRNA levels of the Ifn-α4 and Ifn-β genes in BMDCs 5 hrs after co-incubation with PSM, free antigen, or PSM/OVA antigen. […] Data are presented as mean±S.D.; *, P <0.05, **, P <0.01 (see also FIG. 9A and FIG. 9B);
FIG. 4A, FIG. 4B, FIG. 4C, FIG. 4D, FIG. 4E, FIG. 4F, FIG. 4G, FIG. 4H, FIG. 4I, and FIG. 4J show TRIF and MAVS mediated PSM induced interferon type I (IFN-I) activation. FIG. 4A, FIG. 4B, FIG. 4C, and FIG. 4D illustrate PSM-induced changes of Ifn-α4 and Ifn-β gene expression in BMDCs infected with lentiviruses carrying shRNAs targeting the indicated genes. FIG. 4E, FIG. 4F, FIG. 4G, and FIG. 4H illustrate PSM-induced changes of Ifn-α4 and Ifn-β gene expression in BMDCs isolated from wild-type or gene knockout mice. […] FIG. 4J is a schematic view of PSM-induced signaling pathway that mediates IFN-I activation. Data are presented as mean±S.D.; *, P <0.05, **, P <0.01; (see also FIG. 10A, FIG. 10B, FIG. 10C, FIG. 10D, FIG. 10E, and FIG. 10F);
FIG. 10A, FIG. 10B, FIG. 10C, FIG. 10D, FIG. 10E, and FIG. 10F show PSM induced activation of IFN-I signaling in DCs. […]
Real-Time PCR. […] The expression of individual genes was calculated by a ΔΔCT method, and normalized to the expression of β-actin. […]

[1] = test system: OVA-specific B3Z CD8 T cells; assay: In vitro antigen presentation assay, IL-2 production by B3Z cells; conditions: DCs treated with inhibitor before co-incubation with soluble OVA
Description: In Vitro Antigen Presentation Assay. The in vitro antigen presentation assay was performed as previously described (Mukai et al., 2011). Briefly, DC2.4 cells or BMDCs isolated from C57BL/6 mice or TAP^−/− mice were seeded in a 96-well flat-bottom culture plates at a density of 2×10^5 cells/well, and cultured for 12 hrs at 37° C. Each well was washed once with PBS, and then the cells were pulsed with soluble OVA, PSM/OVA, OVA-derived MHC class I epitope peptide [OVA257-264; SIINFEKL (SEQ ID NO:1)], or MHC class II epitope peptide [OVA323-339; ISQAVHAAHAEINEAGR (SEQ ID NO:2); Peptide 2.0] for indicated time points, and immediately fixed with 1% paraformaldehyde. The cells were then co-cultured with 2×10^5 B3Z cells or 2×10^5 DOBW cells for 18 hrs at 37° C. The response of stimulated B3Z or DOBW cells was assessed by determining the amount of IL-2 released into the culture medium using a murine IL-2 ELISA KIT (Ebioscience, San Diego, Calif., USA). […]
T-cell response to antigen cross-presentation of PSM-loaded OVA (PSM/OVA) was next assessed in DCs using an in vitro antigen presentation assay. […] It was subsequently determined whether PSM packaging could induce sustained antigen presentation. […]

DCs (DC2.4 cells, BMDCs) = assay: DC uptake of PSM/FITC-OVA in cell culture
Source text: FIG. 1A, FIG. 1B, FIG. 1C, FIG. 1D, FIG. 1E, FIG. 1F, and FIG. 1G show PSM-loaded antigen was efficiently internalized by dendritic cells (DCs) through phagocytosis and macropinocytosis. […] Upper panel, DC2.4 cells; lower panel, bone-marrow-derived dendritic cells (BMDCs). Scale bar, 25 μm. FIG. 1B is a representative transmission electron microscopy (TEM) image showing the vesicular structure around a PSM/OVA particle inside a DC. Upper panel magnification=5,000×; lower panel magnification=50,000×. Upper panel scale bar=4 μm; lower panel bar=0.5 μm. […] The DCs were extensively washed after priming with 5 μg/mL soluble peptide or PSM/peptides, and either immediately co-incubated with B3Z cells (0 hrs), or cultured for 18 to 30 hrs before T-cell co-incubation; Data are presented as mean±S.D.; *, P <0.05, **, P <0.01; (See also FIG. 7A-FIG. 7E);
Confocal Laser Scanning Microscopy. DC2.4 cells or BMDCs were seeded on eight-well chamber slides at a density of 1×10^5 cells/well and cultured for 24 hrs at 37° C. Each well was washed twice with PBS, and the cells were pulsed with FITC-OVA or PSM/FITC-OVA for 20 min. Cells were washed twice with PBS and incubated for an additional 30 min, 1, 3, or 6 hours in culture medium at 37° C. […] The samples were embedded with Prolong® Gold anti-fade reagent with DAPI (Invitrogen) and analyzed by confocal laser scanning microscopy (Olympus IX81). […]

DCs = assay: Intracellular antigen trafficking by confocal microscopy
Description: FIG. 2A, FIG. 2B, and FIG. 2C show antigen presentation of PSM-loaded OVA. FIG. 2A illustrates subcellular transport of antigens. DCs were incubated with PSM/FITC-OVA for 0.5 hrs, and then washed extensively to remove unbound particles. The cells were cultured for an additional 0.5 hr, 1 hr, 3 hrs, or 6 hrs before fixation, followed by immunostaining with antibodies recognizing specific organelles (EEA1 for early endosome; Rab7 for late endosome; TR for recycling endosome; and KDEL for the ER). Scale bar=25 μm. […] Peptide I (100 ng/mL) served as the positive control. […] BMDCs were incubated with OVA or PSM/OVA for 16 hrs, followed by harvest and labeling with the anti-CD11c antibody identifying DCs and the 25D1.16 antibody recognizing OVA257-264/H-2K^b complex on DC surface. Percentages of 25D1.16-staining positive populations in DCs are shown in red numbers. Data are presented as mean±S.D; *, P <0.05, **, P <0.01 (see also FIG. 8A, FIG. 8B and FIG. 8C);
Confocal Laser Scanning Microscopy. DC2.4 cells or BMDCs were seeded on eight-well chamber slides at a density of 1×10^5 cells/well and cultured for 24 hrs at 37° C. Each well was washed twice with PBS, and the cells were pulsed with FITC-OVA or PSM/FITC-OVA for 20 min. […] The samples were embedded with Prolong® Gold anti-fade reagent with DAPI (Invitrogen) and analyzed by confocal laser scanning microscopy (Olympus IX81).

Molecule | Effect of inhibitor on IFN-I induction by PSM (Ifn-α4 and Ifn-β genes) | Effect of inhibitor pre-treatment on particle internalization (DCs (DC2.4 cells, BMDCs)) | other results
O=C(NCCCNc1nc(Nc2cccc(NC(=O)N3CCCC3)c2)ncc1I)c1cccs1 [BX795] | markedly inhibited IFN-I induction |  | 
CC(C)C[C@@H](C=O)NC(=O)[C@H](CC(C)C)NC(=O)[C@H](CC(C)C)NC(=O)OCc1ccccc1 [MG-132] (Cbz-Leu-Leu-Leu-aldehyde) |  |  | Effect on class I antigen presentation of soluble OVA [1]: completely blocked
N=C(N)NC(=O)c1nc(Cl)c(N)nc1N [amiloride] |  | significantly decreased particle internalization | 
C=C1[C@@H](C)[C@H]2[C@H](Cc3ccccc3)NC(=O)[C@]23[C@H](OC(C)=O)/C=C/[C@@](C)(O)C(=O)[C@@H](C)C/C=C/[C@H]3[C@@H]1O [cytochalasin D] | suppressed IFN-I induction by PSM | significantly decreased particle internalization | 
free FITC-OVA: free FITC-conjugated ovalbumin |  |  | Signal inside DCs at 6 hrs (DCs): very weak signal by 6 hour
